The values that follow come from patent US20230172901A1, “COMPOSITIONS AND METHODS FOR THE PROPHYLAXIS AND TREATMENT OF FIBROTIC AND INFLAMMATORY CONDITIONS” (GRETALS AUSTRALIA PTY LTD, priority 2020, published 2023).

The subject of this assay is sheep model for pulmonary fibrosis, bleomycin-injured lung segments. Briefly: Example 2: histopathology scoring (H&E; inflammation, fibrosis, overall pathology). The format is in vivo. Here is the method: Histopathology of lung parenchyma was assessed by an experienced pathologist blinded to the treatment groups using a semi-quantitative scoring system. Briefly, the criteria used gives score indices separately for both inflammation and fibrosis pathology, and these score indices added together give an ‘overall pathology score’.
In this study, a total of 10 sheep were used. Fibrosis in two lung segments of each sheep in a similar manner as performed in Example 1 herein. Using this procedure (as detailed further below) the fibrosis was confined to small, isolated regions in the lungs leaving the remaining 90-95% of the healthy unaffected lungs to undertake normal respiratory function.
All sheep (n=10) in the study were challenged with 2 single doses of bleomycin (3 units) per lung segment, a fortnight apart and the animals were kept for a little over 5 weeks after the final bleomycin dose. Bleomycin is a well-known agent for inducing fibrosis in the lungs. The administration procedure involves inserting a bronchoscope into lung segments in the right and left lung, and then slowly infusing the bleomycin into two segments as shown in FIG. 2 via the bronchoscope biopsy port.
In the study detailed in Example 1 herein, the dose-rate of pinocembrin was 7 mg pinocembrin per sheep, per week.
For control purposes the lung segment in the opposite lung was used as a bleomycin-positive, without drug, control, as indicated in FIG. 1. The bioactive molecules in vehicle, were delivered as 5 ml infusions through the biopsy port of the bronchoscope. Note that to nullify any small differences (e.g. physiological or anatomical etc.) between the left and right lungs, the infusions of pinocembrin were randomized between the left and right caudal lung segments. Half the animals (5 sheep) received pinocembrin to the right caudal lung segments, while the other 5 sheep received pinocembrin to the left caudal lung segments. The right medial lung segment was left untreated and used for healthy lung control tissue which was sampled at autopsy (FIG. 2).
Following euthanasia, the lungs were removed, and targeted lung-segments identified and carefully dissected free from surrounding tissue. Individual segments were then inflated with a 1:1 mixture of Optimal Cutting Temperature Compound (OCT, ProSciTech Ltd Pty) and sterile PBS solution, under pressure of approximately 20 cm/H2O. Several serial transverse sections of the inflated segment were fixed in 10% neutral-buffered formalin and processed in paraffin for histopathological assessment. Remaining lung slices were embedded in OCT and frozen in cryo-moulds on aluminium boats floating on liquid nitrogen for immunochemistry analyses.
Paraffin-embedded tissue sections (5 μm) were stained with haematoxylin and eosin Y (H&E) for general histology and with Masson's trichrome staining to identify changes to collagen content within the lung parenchyma.
Histopathology of the lung parenchyma was assessed using a semi-quantitative scoring system as outline in Example 1 herein. […] For each H&E stained section, 10 consecutive, non-overlapping fields at ×20 magnification were graded based on the scoring criteria for fibrosis, inflammation and overall pathology scores as outlined in Example 1 herein. The areas were selected away from large airways and major blood vessels. Scores from all ten fields were then averaged to give representative scores for the parameters assessed in the sectioned lung segment.

The mark [1] stands for this setting: individual sheep data, 10 sheep.
The mark [2] stands for this setting: vs segments which received bleomycin infusion only, 4 weekly treatments of 7 mg, n=10 sheep.

SMILES strings stand for the structures. “Also recorded” adds a separate entry of the source.

Take `O=C1CC(c2ccccc2)Oc2cc(O)cc(O)c21` (stereo not shown) [pinocembrin, 5,7-Dihydroxy-2-Phenyl-2,3-Dihydro-4H-Chromen-4-One]: under setting [1], the “sheep having improved fibrosis scores” value is “eight out of ten”, the “sheep having improved inflammation scores” value is “nine out of ten” and the “sheep having improved overall pathology scores” value was “Nine out of ten”. Also, the “fibrosis score (histopathology), difference” value (lower than segments which received bleomycin infusion only, 4 weekly treatments of 7 mg, n=10 sheep) is reported as “not statistically significant”. The “pathology scores (all three parameters) compared with untreated control lung segments” value (pinocembrin-treated bleomycin segments vs untreated control segments, n=10 sheep) was “significantly higher”. For the same molecule, under setting [2], the “inflammation score (histopathology)” value was “significantly lower; also recorded: significantly improved” and the “overall pathology score (histopathology)” value is reported as “significantly lower; also recorded: significantly improved”.
